In test [1] the test system is S-opsin, M-opsin, L-opsin. As to the kind of experiment: Quantitative PCR of S-opsin, M-opsin, L-opsin after maturation culture in serum-free medium. The test is classed as cell-based, human. To be noted: BMP4 (0-1.35 nM) added in combination with T3 (0-8 nM) in serum-free DMEM/F12 after about day 190, not less than 30 days. How it is done: By a method similar to the methods described in Example 1 and Example 3, a cell aggregate containing a retinal tissue in a differentiation stage matured to the level that Muller cell was observed was prepared and culture was performed, in the serum-containing medium used, up to about day 190 to give a retinal tissue in a differentiation stage matured to the level that Muller cell was observed. Thereafter, by a method similar to the methods described in Example 11 and 12, further maturation was performed. That is, 0-1.35 nM BMP4 and 0-8 nM T3 were added to a medium obtained by adding 1% N2 supplement and 100 μM taurine but not adding 10% fetal calf serum to DMEM/F12 medium containing glutamic acid as a component, and culture was performed for not less than 30 days from the start of culture for further maturation. A cell aggregate containing a retinal tissue was recovered, quantitatively PCR was performed according to a conventional method, and the expression levels of S-opsin, M-opsin, L-opsin were confirmed. As a result, irrespective of the presence or absence of BMP4, the expression of S-opsin was promoted when T3 was absent.

Another test deals with ALDH1A1 gene. Put plainly: Quantitative PCR of ALDH1A1 gene expression in retinal tissue. The test is classed as cell-based, human. How it is done: [1] Control group (FIG. 2a, f, k, p); according to the method described in Example 1, culture was performed up to day 70 or day 75 from the start of suspension culture and without addition. [2]+BMP group (FIG. 2b, g, 1, q); 0.15 nM BMP4 was added from day 22 from the start of suspension culture to completion of suspension culture, and cultured up to day 70 or day 75 from the start of suspension culture. [3]+Cyclopamine-KAAD group (FIG. 2c, h, m, r); 500 nM Cyclopamine-KAAD was added from day 22 from the start of suspension culture to completion of the suspension culture, and cultured up to day 70 or day 75 from the start of suspension culture. [4]+LDN193189 group (FIG. 2d, i, n, s); 100 nM LDN193189 was added from day 22 from the start of suspension culture to completion of the suspension culture, and cultured up to day 70 or day 75 from the start of suspension culture. [5]+SAG group (FIG. 2e, j, o, t); 100 nM SAG was added from day 22 from the start of suspension culture to completion of the suspension culture, and cultured up to day 70 or day 75 from the start of suspension culture.
The expression level of ALDH1A1 gene was analyzed by quantitative PCR using the same cDNA as that used in Example 7. As a result, similar to that observed by immunostaining, the expression level of ALDH1A1 gene was promoted in +BMP4 group as compared to the Control (NUC) group on about day 40 from the start of suspension culture (FIG. 8-2, black bar (d40) in graph). […]
After extracting RNA from retinal tissue prepared in this way, cDNA was synthesized and the expression level of ALDH1A1 gene was analyzed by quantitative PCR. […] Furthermore, a retinal tissue prepared using 1.35 nM BMP4 was fixed with 4% para-formaldehyde, cryosections were prepared, and immunostaining using an antibody against GFP (fluorescence of GFP variant incorporated in CRX gene locus can be identified. That is, cells similar to CRX-positive cell can be identified), ALDH1A1, or DAPI staining for staining the nucleus was performed. […]

Turning to “BMP4: BMP protein; BMP signal transduction pathway agonist used as dorsalization signal transmitter”, the “expression of L and M-opsin” value in test [1] is reported as “promoted”. The ALDH1A1 gene expression result is “significantly increased” in the test on ALDH1A1 gene (1.35 nM BMP4 from day 22, day 70-75) and “tendency of decrease” with ALDH1A1 gene (about day 70 (versus about day 40), 0.15 nM BMP4 from day 22). In the test with ALDH1A1 gene (about day 40, 0.15 nM BMP4 from day 22), the “expression level of ALDH1A1 gene versus Control (NUC) group” value is listed as “promoted”.

(Values after US20200277571A1, “METHOD FOR AMPLIFYING CONE PHOTORECEPTORS OR ROD PHOTORECEPTORS USING DORSALIZATION SIGNAL TRANSMITTER OR VENTRALIZATION SIGNAL TRANSMITTER” (RIKEN, priority 2017, published 2020).)
